Test results taken from patent US20090281119A1, “ACID ADDITION SALTS OF N-ETHYI-N'-[2-METHOXY-4-(5-METHYI-4-PRYIMIDIN-2-YL)PHENYL]UREA AND USES THEREOF” (Cytopia Research Pty Ltd., priority 2005, published 2009).

Tests used:
physchem = format: physicochemical; details: 24 °C; water at 24±3° C.
Description: (§1) Acid addition salts of the first aspect are well-suited to pharmaceutical formulation as either solution or solid dosage forms. […] It has been shown that these particular salts are also non-hygroscopic and this remains unchanged when stored in a humid environment. The lower hygroscopicity is a further advantage for processing and storing such acid addition salts.

[1] = hygroscopicity of the salts; format: physicochemical; details: crystal form / solid salt
Description: as §1

tubulin = assay: inhibition of tubulin polymerisation; format: biochemical; details: read-out: inhibits tubulin polymerisation, IC50
Description: One pharmacologically important mechanism of inhibiting cellular proliferation is by means of binding tubulin. Tubulin is an asymmetric dimer composed of alpha and beta subunits, that polymerizes to form structural components of the cytoskeleton called microtubules. Microtubules must be highly dynamic in order to carry out many of their functions. At certain stages of the cell cycle, or in particular cell types or organelles, stable microtubules are required, such as for transport within axons or for ciliary and flagellar movement. Micro-tubules assemble during the G2 phase of the cell cycle, and participate in the formation of the mitotic spindle which facilitates the segregation of sister chromatids during the process of cell division. The essential role of microtubules in cell division and the ability of drugs that interact with tubulin to interfere with the cell cycle have made tubulin a successful target for applications that include anti-cancer drugs, fungicides, and herbicides.
The compound of formula I, and by analogy its acid addition salts, inhibits tubulin polymerisation with an IC50 of 3 μM. […] The inhibition of tubulin polymerisation makes a compound of formula I suitable for the treatment of cancer, viral and bacterial infections, vascular restenosis, inflammatory diseases, autoimmune diseases, and psoriasis.

in vivo tumour models = assay: vascular targeting activity in in vivo tumour models

| Compound | solubility (physchem) | hygroscopicity [1] | IC50 (tubulin) | vascular targeting activity (in vivo tumour models) |
| --- | --- | --- | --- | --- |
| CCC[C@H](Nc1nc(-c2ccc(NC(=O)NCC)c(OC)c2)ncc1C)c1cccnc1.O=C(O)C(O)C(O)C(=O)O [tartrate salt, N-ethyl-N′-[2-methoxy-4-(5-methyl-4-{[(1S)-1-pyridin-3-ylbutyl]amino}pyrimidin-2-yl)phenyl]urea tartrate salt] | > 2100 µg/mL | not hygroscopic | – | – |
| CCC[C@H](Nc1nc(-c2ccc(NC(=O)NCC)c(OC)c2)ncc1C)c1cccnc1.O=C(O)CC(O)(CC(=O)O)C(=O)O [citrate salt, N-ethyl-N′-[2-methoxy-4-(5-methyl-4-{[(1S)-1-pyridin-3-ylbutyl]amino}pyrimidin-2-yl)phenyl]urea citrate salt] | > 2100 µg/mL | not hygroscopic | – | – |
| CCC[C@H](Nc1nc(-c2ccc(NC(=O)NCC)c(OC)c2)ncc1C)c1cccnc1.Cl.Cl [dihydrochloride salt, N-ethyl-N′-[2-methoxy-4-(5-methyl-4-{[(1S)-1-pyridin-3-ylbutyl]amino}pyrimidin-2-yl)phenyl]urea dihydrochloride salt] | > 2100 µg/mL | not hygroscopic | – | – |
| CCC[C@H](Nc1nc(-c2ccc(NC(=O)NCC)c(OC)c2)ncc1C)c1cccnc1 [compound of formula I, N-ethyl-N′-[2-methoxy-4-(5-methyl-4-{[(1S)-1-pyridin-3-ylbutyl]amino}pyrimidin-2-yl)phenyl]urea] | – | – | 3000 nM | displays vascular targeting activity |
| CCC[C@H](Nc1nc(-c2ccc(NC(=O)NCC)c(OC)c2)ncc1C)c1cccnc1.CS(=O)(=O)O.CS(=O)(=O)O [di-methanesulfonate salt, N-ethyl-N′-[2-methoxy-4-(5-methyl-4-{[(1S)-1-pyridin-3-ylbutyl]amino}pyrimidin-2-yl)phenyl]urea di-methanesulfonate salt] | > 2100 µg/mL | not hygroscopic | – | – |
| CCC[C@H](Nc1nc(-c2ccc(NC(=O)NCC)c(OC)c2)ncc1C)c1cccnc1.O=C(O)C(=O)O [mono-oxalate salt, N-ethyl-N′-[2-methoxy-4-(5-methyl-4-{[(1S)-1-pyridin-3-ylbutyl]amino}pyrimidin-2-yl)phenyl]urea mono-oxalate salt] | > 2100 µg/mL | not hygroscopic | – | – |
